We go through 7 compounds from ChEMBL document CHEMBL1201862, “PubChem BioAssay data set” (2004).

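Protocol summary: plate cells (96-well), add compound at 5 concentrations, incubate 48 h, interpolate endpoints linearly. GI50: concentration for 50% inhibition of growth.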 Activity calls are given as the source filed them. Rule as the data show it: active = GI50 up to about 1.1 µM and inactive = higher. A value given as a limit tells only on which side of the number the result lay.

Test systems include SNB-19; U-251; NCI-H460; SK-OV-3; MDA-MB-435; ACHN; DU-145; TK-10; SF-295; CCRF-CEM; SF-539; SW-620; RXF 393; MDA-MB-231; KM12; 786-0; OVCAR-4; OVCAR-8; PC-3; SNB-75.
Assay in all cases: inhibition of tumour cell growth, NCI panel, 48 h

For `Nc1cc2nc(O)c(O)nc2cc1N`, the GI50 with SNB-19, in the test on U-251, with NCI-H460, with SK-OV-3, with MDA-MB-435 and in the test on ACHN was > 100 µM (inactive) in each case. For the same compound, the GI50 in the test on DU-145, with TK-10, in the test on SF-295, with CCRF-CEM, with SF-539 and in the test with SW-620 was > 100 µM (inactive) each time. Besides, the GI50 in the test on RXF 393, in the test with MDA-MB-231, with KM12, in the test with 786-0, in the test on OVCAR-4 and with OVCAR-8 was > 100 µM (inactive) throughout. Further, the GI50 in the test with PC-3 and with SNB-75 was > 100 µM (inactive) throughout.

For the compound `CC(C)C1CC(CO)(CNc2nc(N)nc(Cl)c2/C=N\O)C1` (stereo not given), the GI50 with SNB-19 was 20.1 µM (inactive); in the test with U-251, 14.5 µM (inactive); in the test with NCI-H460 it was 0.685 µM (active); with SK-OV-3, 10.3 µM (inactive); in the test with MDA-MB-435, 12.6 µM (inactive); in the test with ACHN, 8.51 µM (inactive). Further, the GI50 with DU-145 is 15.6 µM (inactive); with TK-10 it was 17.6 µM (inactive); in the test on SF-295 it was 1.01 µM (active); in the test with CCRF-CEM, 13.6 µM (inactive); in the test with SF-539, 16.8 µM (inactive); in the test with SW-620 it was 22.5 µM (inactive). The GI50 with RXF 393 is 18.8 µM (inactive); with MDA-MB-231, 12.6 µM (inactive); with KM12, 2.03 µM (inactive); with 786-0 it was 18.2 µM (inactive); with OVCAR-4, 2.35 µM (inactive); with OVCAR-8, 15.5 µM (inactive). In addition, the figures for the GI50 with PC-3 and with SNB-75 were 9.27 µM (inactive) and 12.5 µM (inactive), respectively.

Take `COc1cc(/C=N/n2c(-c3ccccc3)nn(C(C)=O)c2=O)cc(OC)c1OC`: the GI50 in the test with SNB-19 was 2.56 µM (inactive); with U-251, 3 µM (inactive); with NCI-H460, 0.619 µM (active); in the test with SK-OV-3 it was 4.2 µM (inactive); with MDA-MB-435, 0.19 µM (active); with ACHN, 6 µM (inactive). Further, the GI50 in the test on DU-145 is 4.46 µM (inactive); in the test on TK-10, 3.85 µM (inactive); in the test on SF-295, 1.02 µM (active); with CCRF-CEM, 2.23 µM (inactive); in the test with SF-539, 1.66 µM (inactive); in the test with SW-620 it was 0.836 µM (active). In addition, the GI50 with RXF 393 was 5.26 µM (inactive); in the test with MDA-MB-231, 4.61 µM (inactive); in the test with KM12 it was 0.521 µM (active); with 786-0 it was 4.36 µM (inactive); with OVCAR-4, 9.91 µM (inactive); with OVCAR-8, 3.78 µM (inactive). Moreover, the GI50 in the test with PC-3 is 2.07 µM (inactive); with SNB-75 it was 3.01 µM (inactive).

Take `O=c1[nH]c2c(c(=O)[nH]1)SSC2`: the GI50 is 25 µM (inactive) in the test with SNB-19; 11.8 µM (inactive) with U-251; 11.7 µM (inactive) with NCI-H460; 21.4 µM (inactive) in the test with SK-OV-3; 2.04 µM (inactive) in the test with MDA-MB-435; 26.5 µM (inactive) in the test with ACHN. Besides, the GI50 with DU-145 is 13.8 µM (inactive); in the test with TK-10 it was 16 µM (inactive); in the test on SF-295, 18.5 µM (inactive); with CCRF-CEM, 0.46 µM (active); in the test on SF-539 it was 3.14 µM (inactive); in the test on SW-620, 7.19 µM (inactive). Moreover, the GI50 is 14.5 µM (inactive) with RXF 393; 2.18 µM (inactive) with MDA-MB-231; 17.9 µM (inactive) with KM12; 4.89 µM (inactive) in the test with 786-0; 17.3 µM (inactive) in the test on OVCAR-4; 4.16 µM (inactive) with OVCAR-8. Also, the GI50 is 24 µM (inactive) in the test with PC-3 and 17.1 µM (inactive) with SNB-75.

Turning to `O=C(n1c(=O)n(-c2ccc([N+](=O)[O-])cc2)c(=O)n1C(=O)C(Cl)(Cl)Cl)C(Cl)(Cl)Cl`, the GI50 in the test with SNB-19, with U-251, in the test with NCI-H460, with SK-OV-3, in the test on MDA-MB-435 and in the test with ACHN was > 100 µM (inactive) throughout. Also, the GI50 in the test with DU-145, in the test with TK-10, in the test on SF-295, in the test on CCRF-CEM, in the test with SF-539 and in the test with SW-620 was > 100 µM (inactive) each time. Also, the GI50 in the test with RXF 393, in the test on MDA-MB-231, with KM12, in the test on 786-0, with OVCAR-4 and with OVCAR-8 was > 100 µM (inactive) throughout. Further, the GI50 in the test with PC-3 and in the test on SNB-75 was > 100 µM (inactive) throughout.

With `CCc1ccc(/C=C\c2cc(OC)c(OC)c(OC)c2)cc1`, the GI50 with SNB-19 was 0.0148 µM (active); with U-251, 0.0102 µM (active); with NCI-H460, 0.0235 µM (active); in the test with SK-OV-3, 0.013 µM (active); with MDA-MB-435 it was 0.00204 µM (active); in the test on ACHN, 0.0285 µM (active). Also, the GI50 is 0.0303 µM (active) in the test on DU-145; 0.337 µM (active) with TK-10; 0.00631 µM (active) in the test with SF-295; 0.00998 µM (active) in the test with CCRF-CEM; 0.0101 µM (active) with SF-539; 0.00897 µM (active) in the test on SW-620. Further, the GI50 with RXF 393 is 0.00908 µM (active); with MDA-MB-231, 0.144 µM (active); in the test on KM12, 0.0452 µM (active); in the test with 786-0, < 0.0196 µM (active); in the test on OVCAR-4 it was 0.617 µM (active); with OVCAR-8, 0.0456 µM (active). For the same compound, the GI50 was 0.00325 µM (active) in the test on PC-3 and 0.0234 µM (active) with SNB-75.

Consider `Cc1cc(C)c([S@@](=O)O[C@@H]2[C@H]3OC(C)(C)O[C@H]3O[C@@H]2[C@H]2COC(C)(C)O2)c(C)c1`, for which the GI50 with SNB-19 is 40 µM (inactive); in the test with U-251, 20.2 µM (inactive); in the test on NCI-H460 it was 24.8 µM (inactive); in the test with SK-OV-3 it was 36.6 µM (inactive); with MDA-MB-435, 18.2 µM (inactive); in the test with ACHN, 15.3 µM (inactive). In addition, the GI50 with DU-145 was 29.1 µM (inactive); in the test with TK-10, 25.5 µM (inactive); in the test on SF-295, 29 µM (inactive); in the test with CCRF-CEM, 25.2 µM (inactive); with SF-539 it was 19.5 µM (inactive); with SW-620 it was 20 µM (inactive). The GI50 in the test on RXF 393 was 19.3 µM (inactive); in the test with MDA-MB-231, 26.7 µM (inactive); in the test with KM12, 18.2 µM (inactive); in the test on 786-0, 26.9 µM (inactive); with OVCAR-4, 16.5 µM (inactive); in the test with OVCAR-8, 19.1 µM (inactive). Besides, the GI50 with PC-3 was 19.9 µM (inactive); with SNB-75, 21.8 µM (inactive).
